# According to patent publication US20260158103A1, “USE OF CYCLOSPORINE ANALOGUES AS ANTITHROMBOTIC AGENTS” (Hepion Pharmaceuticals, Inc., priority 2020, published 2026):
# Entries after “also recorded” stand apart in the source; their conditions may differ. Where a SMILES comes first, the peptide text is derived from it. [ ]: non-standard residue; d: D form. NMeThr(4R-Me,4-(CH2)6NHAc) = CN[C@H](C(=O)O)[C@H](O)[C@H](C)CCCCCCNC(C)=O; NMeL = CN[C@@H](CC(C)C)C(=O)O; NMeV = CN[C@H](C(=O)O)C(C)C; dNMeA = CN[C@H](C)C(=O)O; Abu = CC[C@H](N)C(=O)O
# Key:
# [1] = system: human platelet aggregation; assay: Platelet aggregometry (washed platelets, lumi-aggregometer, % Light Transmittance); type: cell-based
# Experimental: (§1) Platelet isolation. Blood (40 ml) was obtained from healthy volunteers who had not taken any drugs known to affect platelet function for 2 weeks prior to the study. Prostacyclin-washed platelet suspensions (2.5×10^8/ml) were prepared in Tyrode's buffer.
# Platelet aggregometry. Washed platelets (500 μl/test) were pre-incubated (2 minutes at 37° C.) in a lumi-aggregometer (Chronolog, Havertown, PA, USA) with either vehicle (0.1% DMSO) or CRV431 (0.01-3 μM). Platelet aggregation was then initiated with collagen (1 μg/mL) or thrombin (0.1 U/mL) (Chronolog) and monitored by Aggro-Link software for a further 6 minutes. Extent of platelet aggregation was measured as % Light Transmittance between minutes 2 and 6 and determined by Aggro-Link Software.
# (§2) Statistics. Statistical analysis was performed using GraphPad Prism 7.0 software. All means are reported with SEM. One-way ANOVA with Dunnet's multiple comparisons test was performed for aggregation studies, and a Repeated-measures One-way ANOVA with Dunnet's multiple comparisons test was performed for procoagulant platelet formation studies. Each N represents an experiment from an independent blood donor. A P-value less than 0.05 was considered significant.
# [2] = system: human procoagulant platelet formation (platelet PS exposure); assay: Procoagulant platelet formation (annexin-V-FITC binding to exposed phosphatidylserine, flow cytometry); type: cell-based
# Experimental: as §1
# Procoagulant platelet formation studies. […] Procoagulant platelet formation was assessed by measuring annexin-V-FITC binding to exposed phosphatidylserine (PS) by flow cytometry as described previously. Flow cytometry was performed utilizing a BD Fortessa X20 flow cytometer equipped with a blue (488 nm) laser and […] band pass filters to detect FITC. Percent PS-positive platelets were determined post-acquisition using FlowJo software.
# as §2
Compound,"inhibition of platelet aggregation (positive control) ([1]; single blood donor (FIG. 3B), agonist and concentration not given)","inhibition of platelet PS-exposure, a marker of procoagulant platelet formation ([2]; CRV431 at 1 and 3 μM, activated by collagen and thrombin, N=8, P<0.01 / P<0.001 vs. vehicle control)","percentage of phosphatidylserine (PS)-positive platelets ([2]; increasing concentrations of CRV431, induced by collagen (10 μg/ml) and thrombin (0.1 U/ml), flow cytometry)","inhibition of platelet aggregation induced by collagen ([1]; collagen 1 μg/mL, CRV431 0.01-3 μM, washed human platelets, N=10, P>0.05)","inhibition of platelet aggregation at the highest concentration tested ([1]; single blood donor (FIG. 3A), highest concentration tested)","inhibition of platelet aggregation induced by thrombin ([1]; thrombin 0.1 U/mL, CRV431 0.01-3 μM, washed human platelets, N=9, P>0.05)"
"CC(=O)Oc1ccccc1C(=O)O [acetylsalicylic acid, reference compound]",effectively inhibited aggregation; also recorded: platelet aggregation is inhibited,,,,,
"CC[C@@H]1NC(=O)[C@H]([C@H](O)[C@H](C)CCCCCCNC(C)=O)N(C)C(=O)[C@H](C(C)C)N(C)C(=O)[C@H](CC(C)C)N(C)C(=O)[C@H](CC(C)C)N(C)C(=O)[C@@H](C)NC(=O)[C@H](C)NC(=O)[C@H](CC(C)C)N(C)C(=O)[C@H](C(C)C)NC(=O)[C@H](CC(C)C)N(C)C(=O)[C@@H](C)N(C)C1=O [CRV431] (cyclo(A[dA][NMeL][NMeL][NMeV][NMeThr(4R-Me,4-(CH2)6NHAc)][Abu][dNMeA][NMeL]V[NMeL]))",,significantly inhibited platelet PS-exposure,reduce the percentage of phosphatidylserine (PS)-positive platelets,did not inhibit platelet aggregation,does not inhibit platelet aggregation,did not inhibit platelet aggregation
